# From the NIST ThermoML archive (doi:10.1021/je800984q)
# Numbers after ± are expanded uncertainties.
# Experiments:
# [1] = Liquid; for viscosity / mass density: 298.15 K, 101 kPa; for viscosity: Capillary tube (Ostwald / Ubbelohde) method; for mass density: Vibrating tube method
# [2] = xn = mol fraction of the nth substance listed; details: 298.15 K, 101 kPa, Liquid; for viscosity: Capillary tube (Ostwald / Ubbelohde) method; for mass density: Vibrating tube method
compound,measurement,setting,value
CCOC(=O)OCC [diethyl carbonate],viscosity,[1],0.764 ± 0.008 mPa·s
same,mass density,[1],969 ± 0.5 kg/m3
same,vapor or sublimation pressure,[1]; 343.77 K,13.8 ± 0.7 kPa
same,vapor or sublimation pressure,[1]; 351.67 K,19.3 ± 0.9 kPa
same,vapor or sublimation pressure,[1]; 355.63 K,22.7 ± 1 kPa
same,vapor or sublimation pressure,[1]; 358.29 K,26 ± 1.1 kPa
same,vapor or sublimation pressure,[1]; 363.84 K,31.3 ± 1.3 kPa
same,vapor or sublimation pressure,[1]; 366.98 K,35.2 ± 1.4 kPa
same,vapor or sublimation pressure,[1]; 369.75 K,39.1 ± 1.5 kPa
same,vapor or sublimation pressure,[1]; 372.28 K,42.8 ± 1.6 kPa
same,vapor or sublimation pressure,[1]; 374.61 K,46.5 ± 1.8 kPa
same,vapor or sublimation pressure,[1]; 377.05 K,50.5 ± 1.9 kPa
same,vapor or sublimation pressure,[1]; 379.59 K,55 ± 2 kPa
same,vapor or sublimation pressure,[1]; 381.49 K,58.8 ± 2.1 kPa
same,vapor or sublimation pressure,[1]; 383.37 K,63.1 ± 2.3 kPa
same,vapor or sublimation pressure,[1]; 383.57 K,63.5 ± 2.3 kPa
same,vapor or sublimation pressure,[1]; 386.18 K,68.5 ± 2.4 kPa
same,vapor or sublimation pressure,[1]; 387.61 K,72.8 ± 2.6 kPa
same,vapor or sublimation pressure,[1]; 390.35 K,78.5 ± 2.8 kPa
same,vapor or sublimation pressure,[1]; 392.39 K,84 ± 2.9 kPa
same,vapor or sublimation pressure,[1]; 393.93 K,88.2 ± 3.1 kPa
same,vapor or sublimation pressure,[1]; 395.72 K,93.4 ± 3.2 kPa
same,vapor or sublimation pressure,[1]; 398.28 K,101.5 ± 3.5 kPa
CCOC(=O)OCC [diethyl carbonate] + C1CC2C3CCC(C3)C2C1,viscosity,[2]; x1 = 1,0.764 ± 0.008 mPa·s
same,mass density,[2]; x1 = 1,969 ± 0.5 kg/m3
"C1CC2C3CCC(C3)C2C1 (stereo not given) [tricyclo[5.2.1.0(2,6)]decane]",viscosity,[1],2.739 ± 0.07 mPa·s
same,mass density,[1],931.4 ± 4.7 kg/m3
same,vapor or sublimation pressure,[1]; 393.98 K,15 ± 0.8 kPa
same,vapor or sublimation pressure,[1]; 396.02 K,16.6 ± 0.8 kPa
same,vapor or sublimation pressure,[1]; 401.42 K,20.6 ± 1 kPa
same,vapor or sublimation pressure,[1]; 413.88 K,30.3 ± 1.3 kPa
same,vapor or sublimation pressure,[1]; 418.34 K,34.8 ± 1.4 kPa
same,vapor or sublimation pressure,[1]; 426.86 K,44.9 ± 1.8 kPa
same,vapor or sublimation pressure,[1]; 431.22 K,50.7 ± 1.9 kPa
same,vapor or sublimation pressure,[1]; 434.56 K,55.8 ± 2.1 kPa
same,vapor or sublimation pressure,[1]; 436.68 K,59.2 ± 2.2 kPa
same,vapor or sublimation pressure,[1]; 439.31 K,63.2 ± 2.4 kPa
same,vapor or sublimation pressure,[1]; 441.13 K,66.6 ± 2.5 kPa
same,vapor or sublimation pressure,[1]; 442.7 K,69.5 ± 2.6 kPa
same,vapor or sublimation pressure,[1]; 442.81 K,69.8 ± 2.6 kPa
same,vapor or sublimation pressure,[1]; 444.37 K,72.9 ± 2.7 kPa
same,vapor or sublimation pressure,[1]; 445.73 K,75.1 ± 2.7 kPa
same,vapor or sublimation pressure,[1]; 446.13 K,75.9 ± 2.8 kPa
same,vapor or sublimation pressure,[1]; 450.08 K,83.9 ± 3 kPa
same,vapor or sublimation pressure,[1]; 457.66 K,101.1 ± 3.6 kPa
"C1CC2C3CCC(C3)C2C1 (stereo not given) [tricyclo[5.2.1.0(2,6)]decane] + CCOC(=O)OCC",viscosity,[2]; x2 = 0,2.739 ± 0.07 mPa·s
same,viscosity,[2]; x2 = 0.1141,2.14 ± 0.051 mPa·s
same,viscosity,[2]; x2 = 0.2235,1.757 ± 0.038 mPa·s
same,viscosity,[2]; x2 = 0.3303,1.496 ± 0.03 mPa·s
same,viscosity,[2]; x2 = 0.4355,1.292 ± 0.024 mPa·s
same,viscosity,[2]; x2 = 0.536,1.149 ± 0.019 mPa·s
same,viscosity,[2]; x2 = 0.6336,1.026 ± 0.016 mPa·s
same,viscosity,[2]; x2 = 0.7288,0.938 ± 0.013 mPa·s
same,viscosity,[2]; x2 = 0.8207,0.861 ± 0.011 mPa·s
same,viscosity,[2]; x2 = 0.9109,0.814 ± 0.01 mPa·s
same,mass density,[2]; x2 = 0,931.4 ± 4.7 kg/m3
same,mass density,[2]; x2 = 0.1141,933.1 ± 4 kg/m3
same,mass density,[2]; x2 = 0.2235,935.3 ± 3.3 kg/m3
same,mass density,[2]; x2 = 0.3303,938.1 ± 2.8 kg/m3
same,mass density,[2]; x2 = 0.4355,941.3 ± 2.3 kg/m3
same,mass density,[2]; x2 = 0.536,944.8 ± 1.9 kg/m3
same,mass density,[2]; x2 = 0.6336,948.8 ± 1.5 kg/m3
same,mass density,[2]; x2 = 0.7288,953.4 ± 1.2 kg/m3
same,mass density,[2]; x2 = 0.8207,958.2 ± 0.9 kg/m3
same,mass density,[2]; x2 = 0.9109,963.5 ± 0.7 kg/m3
